Numbers after ± are expanded uncertainties.
Assay: Molar enthalpy of transition or fusion
Conditions: Adiabatic calorimetry

Compound: CC(C)COCC(C)C [diisobutyl ether]
- Molar enthalpy of transition or fusion (Crystal 1): 2.71 ± 0.055 kcal/mol
- Molar enthalpy of transition or fusion (Crystal 2): 0.43 ± 0.0454 kcal/mol

Reference: the NIST ThermoML archive (doi:10.1021/je800998u)
